Laboratory results: ChEMBL document CHEMBL1201862, “PubChem BioAssay data set” (2004)
The source made the active and inactive calls.

Columns and labels:
Assay type in all cases: functional
[1] = biological target: T1, Replicative DNA helicase DnaB (Mycobacterium tuberculosis, UniProt P9WMR3); test: DnaB intein splicing inhibitors, dose response, biochemical, cell-free fluorescence (AID 449749)
T1 sequence (P9WMR3 whole entry): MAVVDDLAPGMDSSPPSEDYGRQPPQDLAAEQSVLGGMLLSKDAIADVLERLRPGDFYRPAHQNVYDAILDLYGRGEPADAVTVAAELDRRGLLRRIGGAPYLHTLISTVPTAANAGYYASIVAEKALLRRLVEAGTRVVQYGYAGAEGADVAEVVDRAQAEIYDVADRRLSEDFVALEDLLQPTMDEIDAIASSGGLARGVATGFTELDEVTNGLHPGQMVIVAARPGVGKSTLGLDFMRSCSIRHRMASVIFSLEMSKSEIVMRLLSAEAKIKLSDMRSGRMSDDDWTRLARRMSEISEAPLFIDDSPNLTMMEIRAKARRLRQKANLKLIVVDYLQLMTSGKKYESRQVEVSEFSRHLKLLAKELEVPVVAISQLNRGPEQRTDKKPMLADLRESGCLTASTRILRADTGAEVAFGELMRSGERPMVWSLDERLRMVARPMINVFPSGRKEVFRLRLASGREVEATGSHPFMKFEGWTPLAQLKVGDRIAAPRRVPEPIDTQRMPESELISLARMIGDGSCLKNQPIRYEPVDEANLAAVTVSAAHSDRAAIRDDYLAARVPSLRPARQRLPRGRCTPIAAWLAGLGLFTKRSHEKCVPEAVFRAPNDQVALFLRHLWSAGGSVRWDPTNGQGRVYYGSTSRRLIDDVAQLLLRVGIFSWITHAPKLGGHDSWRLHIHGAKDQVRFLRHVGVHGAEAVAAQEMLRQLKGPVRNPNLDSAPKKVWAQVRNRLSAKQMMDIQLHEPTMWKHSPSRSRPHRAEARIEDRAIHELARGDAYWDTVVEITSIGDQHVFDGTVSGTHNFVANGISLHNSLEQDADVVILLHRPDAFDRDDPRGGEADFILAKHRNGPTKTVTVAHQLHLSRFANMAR

[2] = biological target: T2, Sentrin-specific protease 7 (Homo sapiens, UniProt Q9BQF6);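 further: Luminescence-based dose-response confirmation of ultra-high-throughput screening hits, measuring inhibition of SENP7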
T2 sequence (Q9BQF6 whole entry): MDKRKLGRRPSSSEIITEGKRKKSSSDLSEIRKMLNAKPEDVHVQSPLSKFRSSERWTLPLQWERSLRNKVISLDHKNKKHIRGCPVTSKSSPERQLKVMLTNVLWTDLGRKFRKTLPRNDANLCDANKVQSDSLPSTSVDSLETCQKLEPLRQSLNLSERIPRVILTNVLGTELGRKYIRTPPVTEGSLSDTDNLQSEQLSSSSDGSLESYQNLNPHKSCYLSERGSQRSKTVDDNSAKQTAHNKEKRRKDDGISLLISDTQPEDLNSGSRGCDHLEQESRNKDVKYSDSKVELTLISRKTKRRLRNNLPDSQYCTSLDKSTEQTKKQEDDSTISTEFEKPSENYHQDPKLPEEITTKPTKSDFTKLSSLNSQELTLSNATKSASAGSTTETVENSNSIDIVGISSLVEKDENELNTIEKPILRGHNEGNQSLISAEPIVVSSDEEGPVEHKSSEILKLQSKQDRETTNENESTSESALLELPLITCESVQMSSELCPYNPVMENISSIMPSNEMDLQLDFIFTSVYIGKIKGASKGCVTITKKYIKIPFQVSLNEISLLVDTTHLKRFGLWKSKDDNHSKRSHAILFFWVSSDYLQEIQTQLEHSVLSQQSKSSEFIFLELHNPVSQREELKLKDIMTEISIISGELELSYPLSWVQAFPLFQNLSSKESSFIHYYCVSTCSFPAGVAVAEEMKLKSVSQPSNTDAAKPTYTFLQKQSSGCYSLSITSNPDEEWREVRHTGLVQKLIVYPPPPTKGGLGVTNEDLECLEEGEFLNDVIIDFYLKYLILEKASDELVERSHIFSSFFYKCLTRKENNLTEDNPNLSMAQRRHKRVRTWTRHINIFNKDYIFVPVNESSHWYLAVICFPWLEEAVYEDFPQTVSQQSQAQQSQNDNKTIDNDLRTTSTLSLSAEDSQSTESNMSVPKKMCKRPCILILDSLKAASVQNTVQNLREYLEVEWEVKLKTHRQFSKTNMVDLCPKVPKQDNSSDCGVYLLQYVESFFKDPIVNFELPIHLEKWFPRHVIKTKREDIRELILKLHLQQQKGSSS

Protein RecA = biological target: T3, Protein RecA (Mycobacterium tuberculosis, UniProt P9WHJ3); test: Fluorescence Cell-Free Homogeneous Dose Retest to Identify Inhibitors of RecA-Intein Splicing Activity. [Related pubchem assays (depositor defined):AID2097, AID2223, AID489010, AID492950]
T3 sequence (P9WHJ3 whole entry): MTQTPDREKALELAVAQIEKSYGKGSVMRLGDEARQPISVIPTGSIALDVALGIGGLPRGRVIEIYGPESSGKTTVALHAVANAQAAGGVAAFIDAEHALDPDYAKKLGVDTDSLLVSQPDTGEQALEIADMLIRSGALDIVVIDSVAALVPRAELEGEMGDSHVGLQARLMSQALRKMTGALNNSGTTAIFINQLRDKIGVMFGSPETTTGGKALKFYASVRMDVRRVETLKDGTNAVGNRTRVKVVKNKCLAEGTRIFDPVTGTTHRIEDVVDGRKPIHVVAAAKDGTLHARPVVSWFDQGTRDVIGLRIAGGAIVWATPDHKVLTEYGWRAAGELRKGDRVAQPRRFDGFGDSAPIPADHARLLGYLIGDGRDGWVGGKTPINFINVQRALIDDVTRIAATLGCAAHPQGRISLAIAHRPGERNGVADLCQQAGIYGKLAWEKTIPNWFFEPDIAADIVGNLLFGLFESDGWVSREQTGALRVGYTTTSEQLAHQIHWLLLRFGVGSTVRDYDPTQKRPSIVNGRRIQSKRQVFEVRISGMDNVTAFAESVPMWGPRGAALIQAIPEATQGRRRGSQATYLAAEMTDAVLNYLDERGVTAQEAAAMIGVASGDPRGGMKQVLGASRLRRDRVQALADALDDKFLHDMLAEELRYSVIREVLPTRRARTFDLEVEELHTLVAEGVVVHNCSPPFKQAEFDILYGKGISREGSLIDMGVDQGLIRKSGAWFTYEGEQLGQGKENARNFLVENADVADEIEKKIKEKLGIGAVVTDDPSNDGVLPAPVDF

SMILES: COc1ccc(NC(=S)Nc2ccc3nsnc3c2)cc1
- AC50 [1]: > 120 µM (inactive)
- IC50 [2]: 4.08 µM (active)
- EC50 (Protein RecA): 17.5 µM (active)

SMILES: CC(C)(C)c1cc[n+](C2=C([N-]S(=O)(=O)c3ccccc3)C(=O)c3ccccc3C2=O)cc1
- AC50 [1]: 9.28 µM (active)
- IC50 [2]: 13.5 µM (active)
- EC50 (Protein RecA): 9.39 µM (active)

SMILES: O=C1C(=O)c2ccccc2C(O)=C1CCCCl
- AC50 [1]: 6.36 µM (active)
- IC50 [2]: 9.05 µM (active)
- EC50 (Protein RecA): 6.39 µM (active)

SMILES: O=C1C=C(Nc2ccccc2C(=O)O)c2ccccc2C1=O
- AC50 [1]: 2.21 µM (active)
- IC50 [2]: 7.86 µM (active)
- EC50 (Protein RecA): 2.34 µM (active)
